Data from EP0209430A2, “L-di or tripeptides possessing a biological activity for use in human and veterinary medicines, process for their obtention and medicines containing them” (INSTITUT DE RECHERCHES CHIMIQUES ET BIOLOGIQUES APPLIQUEES …, priority 1985, dated 1987).
≈ marks a conversion by molar mass, not a printed value.

Legend:
Test in all cases: MIC (C.M.I.) in agar medium
Type in all cases: cell-based
[1] = test system: Salmonella E.; conditions: Salmonella E. CNCM 57.29, inoculum 10^4 à 10^5 bacteria per ml
From the text: (§1) Par exemple, nous décrivons les C.M.I. (concentrations minimales inhibitrices) en µg/ml, obtenues en milieu gélosé pour un inoculum de 10^4 à 10^5 bactéries par millilitre, du composé B 1067.

[2] = test system: Klebsiella p.; conditions: Klebsiella p. La 433, inoculum 10^4 à 10^5 bacteria per ml
From the text: as §1

[3] = test system: E. Coli
From the text: as §1

[4] = test system: Serratia; conditions: Serratia 22.579, inoculum 10^4 à 10^5 bacteria per ml
From the text: as §1

[5] = test system: S. aureus; conditions: Staphylococcus aureus
From the text: as §1

[6] = test system: S. faecalis; conditions: Enterococcus faecalis, ATCC14508, S. faecalis ATCC 14508, inoculum 10^4 à 10^5 bacteria per ml
From the text: as §1

## C[C@H](N)C(=O)N[C@@H](C)P(=O)(O)O [B 1067, Selde l'amino-2-(hydroxyméthyl)-2-propanediol-1,3 avec l'acide L-Alanyl-L-(amino-1)-éthylphosphonique]
[1]
  MIC: 1 µg/mL (≈ 5.1 µM)
[2]
  MIC: 16 µg/mL (≈ 81.6 µM)
[3]; E. Coli CNCM 53.126, inoculum 10^4 à 10^5 bacteria per ml
  C.M.I.: 0,25 µg/ml
[3]; Escherichia coli, E. Coli CNCM 54.8, inoculum 10^4 à 10^5 bacteria per ml
  MIC: 0.25 µg/mL (≈ 1.27 µM)
[4]
  MIC: 32 to 64 µg/mL (≈ 163 to 326 µM)
[5]; ATCC63, S. aureus ATCC 63.58 P, inoculum 10^4 à 10^5 bacteria per ml
  MIC: 32 µg/mL (≈ 163 µM)
[5]; ATCC29213, S. aureus ATCC 29213, inoculum 10^4 à 10^5 bacteria per ml
  MIC: 8 µg/mL (≈ 40.8 µM)
[5]; S. aureus CNCM 52.149, inoculum 10^4 à 10^5 bacteria per ml
  MIC: 32 µg/mL (≈ 163 µM)
[6]
  MIC: 32 µg/mL (≈ 163 µM)
